The source of these data is patent publication US20250388602A1 (Genase Therapeutics B.V., priority 2022, published 2025).

Each structure is given as a SMILES string. Some results are limits rather than exact numbers.

The target in one assay is CYP1A2 (Homo sapiens (Human), UniProt P05177). The assay can be described thus: CYP inhibition in pooled human liver microsomes. Format: in vitro ADME. As for the experimental part: CYP inhibition: Co-incubation of compounds with P450 enzyme-selective substrates was performed using pooled human liver microsomes (Cat. No. H0610, Xenotech), to determine their potential to cause drug-drug interactions. The assay was performed in duplicate. The formation of acetaminophen, 7′-hydoxycoumarin, hydrobupropion, N-desethylamodiaquine, 4′-hydroxydiclofenac, 4′-hydroxymephenytoin, 1′-hydroxybufuralol, 6″-hydroxychlorzoxazone were quantified as markers for CYP1A2, CYP2A6, […], CYP2C8, CYP2C9, CYP2C19, […], CYP2E1, respectively. CYP3A4 inhibition was measured using 2 substrates, measuring the formation of […] (3A4-T), and 1′-hydroxymidazolam (3A4-M). The incubation was carried out in 96 deep well plates each well containing: 179 μL of the master solution (0.2 mg/mL microsomes plus CYP substrate (see below for final substrate concentration and incubation time for the different CYP assays)) in 100 mM phosphate buffer and 1 μL of the compound working solution or vehicle. The final concentrations of the compounds in the assay was 30 μM when using a single dose or 0.1, 0.3, 1, 3, 10 and 30 μM for a dose response.
CYP1A2, sequence (P05177 whole entry): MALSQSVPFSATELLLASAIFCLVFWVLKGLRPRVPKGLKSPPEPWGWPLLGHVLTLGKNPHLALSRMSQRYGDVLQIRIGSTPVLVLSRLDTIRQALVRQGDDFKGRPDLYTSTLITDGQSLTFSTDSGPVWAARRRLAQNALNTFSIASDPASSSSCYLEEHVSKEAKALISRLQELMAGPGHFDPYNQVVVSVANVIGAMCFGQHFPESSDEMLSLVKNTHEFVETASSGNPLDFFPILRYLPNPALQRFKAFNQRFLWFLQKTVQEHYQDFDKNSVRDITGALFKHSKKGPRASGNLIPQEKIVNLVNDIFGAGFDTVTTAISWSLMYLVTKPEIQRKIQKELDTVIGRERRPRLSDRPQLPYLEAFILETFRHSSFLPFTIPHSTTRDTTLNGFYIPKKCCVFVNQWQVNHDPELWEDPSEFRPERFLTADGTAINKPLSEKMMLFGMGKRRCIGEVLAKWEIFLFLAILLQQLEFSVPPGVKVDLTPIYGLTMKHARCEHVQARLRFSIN
The incubation plate was placed into a water bath and pre-warmed at 37° C. for 5 minutes before the reactions were started by the addition of 20 μL of 10 mM NADPH solution and incubated at 37° C. for the time listed above. […]
(In general: Liver microsomes are vesicles of endoplasmic reticulum, rich in cytochrome P450 enzymes.)

A further assay has as its system DENV-2. The assay can be described thus: anti-DENV-2 CPE reduction assay in A549 cells (MTS). Format: cell-based, DENV-2 laboratory-adapted New Guinea C strain. The protocol: The lung cancer epithelial cell line A549 was obtained from the American Type Culture Collection (ATCC; Rockville, MD, USA) and cultured in MEM medium (Gibco BRL, Gaithersburg, MD, USA) with 10% fetal calf serum (FCS; Gibco BRL), 2 mM L-glutamine (Gibco BRL) and 0.075% sodium bicarbonate (Gibco BRL).
The ZIKV MR766 prototype strain and the DENV-2 laboratory-adapted New Guinea C strain were obtained from ATCC and stocks were grown in the C6/36 mosquito cell line (ATCC). Viral stock titers were determined using plaque assay in BHK-21 cells (ATCC).
The anti-ZIKV and anti-DENV-2 activity in A549 cells was determined using a tetrazolium-based colorimetric cytopathic effect (CPE) reduction assay. This assay has been described in detail before (Virology. 2021; doi.org/10.1016/j.virol.2021.07.003). […] Three hours after MTS incubation, virus was inactivated using 0.5% Triton X-100 (Thermo Fisher Scientific, Waltham, MA, USA) and the absorbance was then recorded at 490 nm with a 96-well plate reader and compared with four cell control replicates (cells without virus and drugs) and four virus control wells (cells with virus but without drug). […] Absorbance was recorded using the VersaMax ELISA™ microplate reader (Molecular Devices) and analyzed with the Softmax Pro® software (Molecular Devices, Version 4.0). […]

In the case of `COc1ccc(F)c(-n2ncc3c2COC[C@H]3NC(=O)c2ncn3c2CCCC3)c1Cl` (single isomer, unassigned) [Ex-9], the IC50 is above 30000 nM at CYP1A2 and 1.6 ± 1 nM with DENV-2 (Dengue virus, DENV2, A549, 96 h, read-out: IC50 DENV-2 MTS). Besides, the “antiviral activity against DENV-2” value with DENV-2 (A549 cells) is reported as “demonstrating antiviral activity”.

The term IC50 denotes the concentration needed to halve the response being measured.
